In US4049795A, “Treatment of hemorrhagic shock” (priority 1974, dated 1977):
Several values for one entry are separate records, joined by “and”; a condition that tells them apart may be missing. Identical values can stand only once. Like-named read-outs stand apart in the source and are kept apart here.

Legend:
[1] = tested on: oxygen consumption of the rat; experiment: Oxygen consumption in metabolism apparatus for small animals (BARGETON and […]); format: in vivo
Description: The results obtained are given as percentage of the control tests in the following table I.

Rabbit ileum = experiment: Isolated rabbit ileum, tonus
Description: Fragments of the ileum were suspended in a 75 ml isolated organ tank containing Tyrode's solution maintained at 37° C. by a thermostat and oxygenated by bubbling pure oxygen at a constant rate of flow. The movement of the organ were recorded by means of a lever on a cylinder rotating at a known constant speed.

Rabbit atrium = experiment: Isolated rabbit atrium
Description: The technique used for this study was the same as that described above for the ileum of the rabbit, but replacing the ileum with bled rabbit atrium. The preservation liquid used as LOCKE's liquid.

[2] = tested on: response to adrenalin, noradrenalin and serotonin; experiment: Response to adrenalin, noradrenalin and serotonin in the dog; format: in vivo; settings: in the presence of dihydroxyacetone
[3] = pH of a solution in distilled water; format: physicochemical
glucidic metabolism = experiment: Glucidic metabolism under intravenous perfusion in rabbits (lactacidemia, pyruvicemia, glycemia); format: in vivo, rabbit
Description: These tests were carried out on rabbits weighing an average of 2.500 kg.
A trachetomy was carried out under local anaesthesia with procaine. […] A saphenous vein and the two femoral arteries were catheterized under local anaesthesia in order to register the blood pressure by a manometer and to take blood samples; a jugular vein was catheterized to the base of the skull to sample cerebral venous blood.
The results obtained were compared with those obtained following a perfusion carried out in the same way with sodium d,l-lactate at a dose of 40 mg/kg/min.
The glycemia was measured by the enzymatic method in the arterial and cerebral venus blood. The samples were taken before the perfusion, at the end of the perfusion, and at 30 minutes and 60 minutes after perfusion.

[4] = tested on: cerebral anoxemia by clamping; experiment: Cerebral anoxemia by clamping in rabbits; format: in vivo, rabbit; settings: 1 g/kg intravenously
Description: The tests were done on rabbits weighing an average of 2.5 kg. The fastening of the cranial electrodes was done under local anaesthesia with procaine, as was the placing of the catheters in a femoral artery to record the blood pressure. The tracheotomies and tracheal intubations were also done under local anaesthesia using procaine. The temperature was maintained at around 38° C. Three types of anoxemia were investigated; 1. Elective cerebral anoxemia by stopping cerebral circulation (anoxemia by clamping): Artificial ventilation was set up by an apparatus allowing constant volume and speed of respiration. An upper sternatomy of the manubrium was carried out; the left sub-[…] artery, the left carotid artery and the right trucus brachiocephalicus were isolated. The clamps were then put into place according to the technique described by […] and LABORIT (Conference of d Agressologie Cycle, Vol. 1, p. 15 ff of 1959). The artificially ventilated animal preserved good peripheral cardiovascular dynamics during the ischemia and supported 120 seconds of clamping without severe hypotension. 3. Nitrogen anoxemia: The animal was curarized and artifically ventilated as indicated above. Anoxemia was obtained by connecting a nitrogen gasbag to the air intake of the BEAUDOUIN apparatus; general non-hypercapnic anoxemia occurred. Air was […] seconds. […] A latency of 30 minutes was observed before anoxemia was caused.

[5] = tested on: free fatty acids in the plasma; experiment: Non-esterified fatty acids in the plasma (DOLE); format: in vivo, rabbit; settings: 1 g/kg
Description: Doses of 1 and 2 mg of adrenalin were introduced subcutaneously into rabbits weighing 2.5 to 3.5 kg.
FIGS. 8, 9 and 10 show the variation in the percentage of non-esterified fatty acids in the plasma as a function of the time. […]

blood pressure = settings: for blood pressure after first injection: Clinical Example 12, 2 g
Description: A person who had suffered from high blood pressure for a long time underwent an urgent operation for the removal of an intra-cerebral hematoma. […] A person who had suffered from high blood pressure and cardiac arrhythmias, was undergoing an operation for the removal of a bilateral sub-dural hematoma. […] A person of generally good health but who had undergone surgery in the previous month for the excision of a cancer of the cecum, was undergoing an operation for a cerebral metastasis. […] A perfusion of two units of blood (800 ml ) was effected to compensate for the moderate blood losses.

electro-encephalograms = settings: in vivo
electro-cardiograms = settings: in vivo
cerebral lactate edema = settings: edema induced by mechanical, biological or pharmacological means; cited from earlier work
hemorrhagic shock = experiment: Irreversible hemorrhagic shock (WIGGERS) in dogs
Description: These experiments were carried out with dogs. […] Spontaneous reinjection, by progressive circulatory failure, of a quarter of the mass of blood effused during the second hemmorhage, was chosen as the irreversibility criterion. The following parameters were measured: pH, arterial and venous CO2 pressure (with a radiometertype apparatus), lactacidemia, pyruvicemia and glycemia (by the enzymatic method), and kalemia (with a flame photometer). Samples were taken from the dogs before irreversibility, immediately after, one hour 11/2 hours and 2R hours thereafter. The blood pressure was followed by femoral intubation and recorded with an apparatus providing mean arterial bloodpressure readings.

## O=C(CO)CO [dihydroxyacetone]
[1]; 2 g / kilogram
  mean decrease (oxygen consumption): 6.5
[1]; 2 g/kg, individual tests No. 1 to 12
  Difference between the control measurement and the measurement after injection (oxygen consumption): 0 percentage of the control test and -18 percentage of the control test and -16 percentage of the control test and -13 percentage of the control test and -11 percentage of the control test
[1]; 4 g / kilogram
  mean decrease (oxygen consumption): 4.1
[1]; 4 g/kg, individual tests No. 1 to 8
  Difference between the control measurement and the measurement after injection (oxygen consumption): -13 percentage of the control test and -10 percentage of the control test
[1]; overall result in words
  oxygen consumption of the rat: decreased the oxygen consumption of the rat
Rabbit ileum; 50 mg to 75 ml of survival medium
  tonus of ileum: only a slight and transient tonus increase
Rabbit ileum; dose printed as 18
  tonus of ileum: a momentary hypertonia
Rabbit ileum; rabbit ileum
  effect of potassium chloride in the presence of dihydroxyacetone: decreases only the contractile amplitude without affecting the tonus
Rabbit ileum; rabbit ileum, acetylcholine
  effect on hypertonia due to acetylcholine: did not change
Rabbit ileum; rabbit ileum, adrenalin
  effect on hypertonia caused by adrenalin: clearly decreased
Rabbit ileum; rabbit ileum, nicotine
  effect on action of nicotine: clearly diminished
Rabbit ileum; rabbit ileum, serotonin
  effect on hypertonic activity of serotonin: The same observation was made with serotonin
Rabbit ileum; rabbit ileum, sodium lactate
  effect on hypertonic action of sodium lactate: influenced to only a small degree
Rabbit ileum; vitamin C or amino-ethyl isothiouronium
  effect on hypertonic activity of reducing agents: disappeared
Rabbit atrium; 800 mg per 75 ml of preservation liquid
  amplitude of atrium: a slight increase in amplitude
Rabbit atrium; dihydroxyacetone 800 mg per 75 ml, then 600 mg of sodium lactate
  effect on inhibitory action of sodium lactate added subsequently: a slight opposition to its inhibitory action
Rabbit atrium; lactate added first
  action on the lactate when it was added first: no action
Rabbit atrium; rabbit atrium
  chronotropic action: negative chronotropic action
[2]
  response to adrenalin, noradrenalin and serotonin: remained unchanged
[3]
  pH of a solution in distilled water: 4
Glucidic metabolism; 66 mg/kg over 15 minutes
  lactacidemia compared with perfusion of sodium lactate: values lower than those obtained after a perfusion of sodium lactate
Glucidic metabolism; 30 and 60 minutes after perfusion
  lactacidemia at 30 and 60 minutes after the end of perfusion: continued to increase at 30 and 60 minutes after the end of perfusion
Glucidic metabolism; after a perfusion
  glycemia: increased considerably
Glucidic metabolism; after sodium lactate
  lactacidemia when perfusion of sodium lactate was followed by perfusion of dihydroxyacetone: a progressive fall in the lactacidemia
Glucidic metabolism; rabbit, intravenous perfusion
  pyruvicemia: increased in parallel with lactacidemia
[4]
  recuperation latency, anoxemia by clamping: no improvement at all
  recuperation time, anoxemia by clamping: no improvement
[4]; prior perfusion
  survival time, anoxemia by clamping: minor
[5]; after 1 mg of adrenalin, fed animals, FIG. 10
  percentages of non-esterified fatty acids in the plasma after adrenalin: general tendency toward increased percentages
[5]; animals without food for 24 hours, FIG. 11
  percentage of non-esterified fatty acids in the plasma, fasted animals: return to normal
Blood pressure; after two hours
  blood pressure after first injection: 95 mm Hg
Blood pressure; one hour, from 90
  blood pressure after first injection: 130 mm Hg
Blood pressure; Clinical Example 12, second 2 g in 10% glucose solution, remained
  blood pressure after second injection: 130 mm Hg
Blood pressure; Clinical Example 13, 2 g over 15 minutes, from 60
  blood pressure after injection: 100 mm Hg
Blood pressure; Clinical Example 14, 2 g, 45 minutes later
  blood pressure after injection: 170 mm Hg
Blood pressure; Clinical Example 14, 2 g, within 20 minutes, from 70
  blood pressure after injection: 130 mm Hg
Blood pressure; Clinical Example 15, 2 g, within 15 minutes, from 60
  blood pressure after perfusion: 110 mm Hg
Blood pressure; Clinical Example 16, 3 g
  blood pressure after injection, stabilized: 100 mm Hg
Blood pressure; Clinical Example 16, 3 g, from 80
  blood pressure after injection, initial rise: 120 mm Hg
Blood pressure; human, in vivo
  post-operative complications: no post-operative complications
  undesirable side effects: without undesirable side effects
electro-encephalograms
  formation of slow waves: does not seem to favour the formation of slow waves
electro-cardiograms
  change in the electro-cardiograms: no change in the electro-cardiograms within standard deviations
Cerebral lactate edema
  protection against cerebral lactate edema: will protect a rat against cerebral lactate edema
Hemorrhagic shock; 4 to 7 g/kg
  duration of the rise in blood pressure: maintained for several hours
Hemorrhagic shock; 4 to 7 g/kg over about 3 hours
  arterial and venous CO2 pressures and pH in hemorrhagic shock: developed in a similar manner to those existing in the control animals
  glycemia in hemorrhagic shock: rose above its initial level
  kalemia in hemorrhagic shock: rose above that of the control animals
  lactacidemia in hemorrhagic shock: reached values higher than in the control animals
  pyruvicemia in hemorrhagic shock: continued to rise
Hemorrhagic shock; 4 to 7 g/kg, average
  average difference in blood pressure between end of reinjection of effused blood and after the perfusion: 21.5 mm Hg
Hemorrhagic shock; comparison in words
  blood pressure elevation or restoration compared with hypertonic glucose: appears to be more active than hypertonic glucose
Hemorrhagic shock; irreversible shock
  effect on the blood pressure in hemorrhagic shock: favorable effect on the blood pressure
